Measured values published in patent US20230321123A1, “INHIBITORS OF PSEUDOMONAS AERUGINOSA VIRULENCE FACTOR LasB” (Helmholtz-Zentrum Für Infektionsforschung GmbH, priority 2020, published 2023).

The molecules below were run against LasB (Pseudomonas aeruginosa, UniProt Q02RJ6) (assay: biochemical). Conditions: IC50 against LasB.
LasB, sequence (Q02RJ6 198-498): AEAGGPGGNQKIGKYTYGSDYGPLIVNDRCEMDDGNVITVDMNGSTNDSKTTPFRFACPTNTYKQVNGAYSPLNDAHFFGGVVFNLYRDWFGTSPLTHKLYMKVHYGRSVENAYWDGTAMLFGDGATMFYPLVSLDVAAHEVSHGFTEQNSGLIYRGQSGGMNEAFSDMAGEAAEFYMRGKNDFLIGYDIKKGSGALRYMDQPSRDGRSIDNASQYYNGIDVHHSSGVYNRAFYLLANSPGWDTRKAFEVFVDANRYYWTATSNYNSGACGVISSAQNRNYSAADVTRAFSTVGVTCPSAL
Parameters: species or system P. aeruginosa
CC(C)CC(C(=O)N[C@H]1CCCN(Cc2ccc(Cl)cc2)C1)P(=O)(O)O (mixture of isomers) [Example 147, (1-(((S)-1-(4-Chlorobenzyl)piperidin-3-yl)amino)-4-methyl-1-oxopentan-2-yl)phosphonic acid] gave an IC50 of 5180 ± 530 nM. Molecule O=C(Nc1ccccc1)C(S)Cc1ccccc1 (single isomer, unassigned) [Example 1 E1, 2-Mercapto-N,3-diphenylpropanamide] has an IC50 of 4800 ± 700 nM. In the case of O=C(Nc1ccccc1)C(S)Cc1ccccc1 (single isomer, unassigned) [Example 1 E2, 2-Mercapto-N,3-diphenylpropanamide], the IC50 is reported as 1000 ± 100 nM. Cc1cccc(NC(=O)C(S)Cc2ccccc2)c1 (stereo not drawn) [Example 7] gave an IC50 of 980 ± 430 nM. Work on O=C(Nc1ccc([N+](=O)[O-])cc1)C(S)Cc1ccccc1 (stereo not drawn) [Example 9] yielded an IC50 of 970 ± 100 nM. Molecule O=C(Nc1ccccc1)C(S)Cc1ccc(O)cc1 (stereo not drawn) [Example 11] has an IC50 of 7300 ± 500 nM. CC(S)C(=O)Nc1ccc(Cl)c(Cl)c1 (stereo not drawn) [Example 15] was tested, and the IC50 was 4500 ± 700 nM. COc1ccc(NC(=O)C(C)S)cc1 (stereo not drawn) [Example 16] was tested, and the IC50 was 45000 ± 1000 nM. CC(=O)c1ccc(NC(=O)C(C)S)cc1 (stereo not drawn) [Example 17] showed an IC50 of 89000 ± 9000 nM. For CCC(S)C(=O)Nc1ccc(Cl)c(Cl)c1 (stereo not drawn) [Example 18], the IC50 was 2400 ± 400 nM. Molecule CCC(S)C(=O)Nc1ccc(OC)cc1 (stereo not drawn) [Example 19] has an IC50 of 4200 ± 600 nM. With CCC(S)C(=O)Nc1ccc(C(C)=O)cc1 (stereo not drawn) [Example 20] the IC50 was 10000 ± 2000 nM. CC(C)C(S)C(=O)Nc1ccc(Cl)c(Cl)c1 (stereo not drawn) [Example 21] was tested, and the IC50 was 2500 ± 300 nM. Molecule COc1ccc(NC(=O)C(S)C(C)C)cc1 (stereo not drawn) [Example 22] has an IC50 of 16000 ± 1000 nM. For CC(=O)c1ccc(NC(=O)C(S)C(C)C)cc1 (stereo not drawn) [Example 23], the IC50 was 22000 nM. Work on CCCC(S)C(=O)Nc1ccccc1 (stereo not drawn) [Example 24] yielded an IC50 of 4800 ± 400 nM. In the case of CCCC(S)C(=O)Nc1ccc(C)cc1 (stereo not drawn) [Example 25], the IC50 is reported as 2000 ± 200 nM. Work on CCCC(S)C(=O)Nc1ccc(Cl)c(Cl)c1 (stereo not drawn) [Example 26] yielded an IC50 of 4000 ± 600 nM. In the case of CCCC(S)C(=O)Nc1ccc(OC)cc1 (stereo not drawn) [Example 27], the IC50 is reported as 2400 ± 600 nM. CCCC(S)C(=O)Nc1ccc(C(C)=O)cc1 (stereo not drawn) [Example 28] gave an IC50 of 2600 ± 500 nM. CCCCC(S)C(=O)Nc1ccc(Cl)c(Cl)c1 (stereo not drawn) [Example 29] gave an IC50 of 6800 ± 1100 nM. CCCCC(S)C(=O)Nc1ccc(OC)cc1 (stereo not drawn) [Example 30] was tested, and the IC50 was 2800 ± 300 nM. In the case of CC(C)CC(S)C(=O)Nc1ccc(Cl)c(Cl)c1 (stereo not drawn) [Example 31], the IC50 is reported as 2600 ± 200 nM. COc1ccccc1NC(=O)C(S)CC(C)C (stereo not drawn) [Example 32] was tested, and the IC50 was 700 ± 40 nM. Molecule COc1cccc(NC(=O)C(S)CC(C)C)c1 (stereo not drawn) [Example 33] has an IC50 of 560 ± 30 nM. In the case of COc1ccc(NC(=O)C(S)CC(C)C)cc1 (stereo not drawn) [Example 34], the IC50 is reported as 360 ± 110 nM. For CC(C)CC(S)C(=O)Nc1ccc(Cl)cc1 (stereo not drawn) [Example 38], the IC50 was 840 ± 240 nM. CC(=O)c1ccc(NC(=O)C(S)CC(C)C)cc1 (stereo not drawn) [Example 39] was tested, and the IC50 was 690 ± 340 nM. CC(C)CC(S)C(=O)Nc1ccccc1O (stereo not drawn) [Example 40] gave an IC50 of 1400 ± 200 nM. CCC(C)C(S)C(=O)Nc1ccc(Cl)c(Cl)c1 (stereo not drawn) [Example 43] was tested, and the IC50 was 7500 ± 200 nM. CCC(C)C(S)C(=O)Nc1ccc(OC)cc1 (stereo not drawn) [Example 44] was tested, and the IC50 was 17000 ± 2000 nM. Work on COc1ccc(NC(=O)C(S)CC2CC2)cc1 (stereo not drawn) [Example 46] yielded an IC50 of 3900 ± 600 nM. For COc1ccc(NC(=O)C(S)CC2CCCCC2)cc1 (stereo not drawn) [Example 48], the IC50 was 2600 ± 1200 nM.

Same assay, conditions: IC50 against LasB (Table 16), heteropentacycles and benzannulated heteropentacycles
Molecule CC(C)CC(C(=O)N[C@H](c1ncc(-c2ccc(Cl)c(Cl)c2)[nH]1)C(C)C)P(=O)(O)O (mixture of isomers) [Example 171, (1-(((S)-1-(5-(3,4-dichlorophenyl)-1H-imidazol-2-yl)-2-methylpropyl)amino)-4-methyl-1-oxopentan-2-yl)phosphonic acid] has an IC50 of 6000 ± 200 nM.

Same assay, conditions: read-out: IC50 against LasB
For Cc1ccccc1NC(=O)C(S)Cc1ccccc1 (stereo not drawn) [Example 6], the IC50 was 2400 ± 1000 nM. In the case of O=C(Nc1ccccc1)C(S)Cc1ccc(O)c([N+](=O)[O-])c1 (stereo not drawn) [Example 12], the IC50 is reported as 2500 ± 100 nM. In the case of Cc1ccc(CC(S)C(=O)Nc2ccccc2)cc1 (stereo not drawn) [Example 13], the IC50 is reported as 2800 ± 300 nM. With O=C(Nc1ccc(Cl)c(Cl)c1)C(S)CC1CC1 (stereo not drawn) [Example 45] the IC50 was 6300 ± 1200 nM. In the case of O=C(Nc1ccc(Cl)c(Cl)c1)C(S)CC1CCCCC1 (stereo not drawn) [Example 47], the IC50 is reported as 12000 ± 3000 nM.
